For the experiment, the target named is T1, ligand binding domain of human ROR gamma (Homo sapiens, UniProt P51449).
T1 construct: NM_001001523; expressed in transfected cells; host or cells: HEK293T
T1 sequence (P51449 247-497 isoform P51449-2): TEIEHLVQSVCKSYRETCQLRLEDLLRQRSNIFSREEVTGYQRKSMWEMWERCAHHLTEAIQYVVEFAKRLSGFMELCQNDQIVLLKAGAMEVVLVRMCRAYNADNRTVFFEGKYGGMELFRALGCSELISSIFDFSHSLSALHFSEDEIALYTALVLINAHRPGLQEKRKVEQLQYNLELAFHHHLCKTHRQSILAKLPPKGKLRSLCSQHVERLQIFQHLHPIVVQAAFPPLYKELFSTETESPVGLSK
As to the kind of experiment: ROR gamma reporter gene assay (GAL4-RORγ LBD luciferase, Dual-Glo). It counts as cell-based. Conditions: HEK293T cells transfected with pM-ROR gamma, 8 concentrations 3.5 nM to 10.5 μM, 24 h incubation; read-out: result (pIC50, inhibition of RORγ transcriptional activity) (converted). The method in brief:
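HEK293T cells co-transfected with GAL4-DBD fused to human RORγ LBD (aa 247-497), 5×UAS firefly luciferase reporter and CMV-renilla, in charcoal-stripped serum.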
On the technique in general: Reporter assays use an easily measured gene product as a stand-in for the process of interest.
For the compound `CC1(C)CCC(N(CC(=O)c2c(Cl)cc(F)cc2Cl)C(=O)c2cnn([C@H]3CC[C@@](C)(C(=O)O)CC3)c2C(F)(F)F)CC1` [Example 301, cis-4-(4-((2-(2,6-dichloro-4-fluorophenyl)-2-oxoethyl)-(4,4-dimethylcyclohexyl)carbamoyl)-5-(trifluoromethyl)pyrazol-1-yl)-1-methylcyclohexane-1-carboxylic acid], the IC50 is 186000 pM. For `CCC(C)(C)CN(CC(=O)c1c(Cl)cc(F)cc1Cl)C(=O)c1cnn([C@H]2CC[C@](C)(C(=O)O)CC2)c1C(F)(F)F` [Example 302, trans-4-(4-((2-(2,6-dichloro-4-fluorophenyl)-2-oxoethyl)-(2,2-dimethylbutyl)carbamoyl)-5-(trifluoromethyl)pyrazol-1-yl)-1-methylcyclohexane-1-carboxylic acid], the IC50 is 14800 pM. Turning to `CN1C2CCC1CC(N(CC(=O)c1c(Cl)cc(F)cc1Cl)C(=O)c1cnn([C@H]3CC[C@](C)(C(=O)O)CC3)c1C(F)(F)F)C2` (stereo partly drawn) [Example 303, trans-4-(4-((2-(2,6-dichloro-4-fluorophenyl)-2-oxoethyl)-(8-methyl-8-azabicyclo[3.2.1]octan-3-yl)carbamoyl)-5-(trifluoromethyl)pyrazol-1-yl)-1-methylcyclohexane-1-carboxylic acid], the IC50 was more than 3.47e+06 pM. As for `C[C@]1(C(=O)O)CC[C@H](n2ncc(C(=O)N(CC(=O)c3c(Cl)cc(F)cc3Cl)C3CC4CCC(C3)N4)c2C(F)(F)F)CC1` (stereo partly drawn) [Example 304, trans-4-(4-(8-azabicyclo [3.2.1]octan-3-yl-(2-[2,6-dichloro-4-fluorophenyl)-2-oxoethyl)carbamoyl)-5-(trifluoromethyl)pyrazol-1-yl)-1-methylcyclohexane-1-carboxylic acid], the figure is more than 1.05e+07 pM; as for `CC(C)N1C2CCC1CC(N(CC(=O)c1c(Cl)cc(F)cc1Cl)C(=O)c1cnn([C@H]3CC[C@](C)(C(=O)O)CC3)c1C(F)(F)F)C2` (stereo partly drawn) [Example 305, trans-4-(4-((2-(2,6-dichloro-4-fluorophenyl)-2-oxoethyl)-(8-propan-2-yl-8-azabicyclo[3.2.1]octan-3-yl)carbamoyl)-5-(trifluoromethyl)pyrazol-1-yl)-1-methylcyclohexane-1-carboxylic acid], more than 1.05e+07 pM. Regarding `CCC(C)(C)CN(CC(=O)c1c(Cl)cc(Cl)cc1Cl)C(=O)c1cnn([C@H]2CC[C@](C)(C(=O)O)CC2)c1C(F)(F)F` [Example 306, trans-4-(4-(2,2-dimethylbutyl-(2-oxo-2-(2,4,6-trichlorophenyl)ethyl)carbamoyl)-5-(trifluoromethyl)pyrazol-1-yl)-1-methylcyclohexane-1-carboxylic acid], the IC50 is 8320 pM. With `Cc1cc(Cl)c(C(=O)CN(Cc2cc(F)cc(F)c2)C(=O)c2cnn([C@H]3CC[C@H](C(=O)O)CC3)c2C(F)(F)F)c(C#N)c1` [Example 307, trans-4-(4-((2-(2-chloro-6-cyano-4-methylphenyl)-2-oxoethyl)-((3,5-difluorophenyl)methyl)carbamoyl)-5-(trifluoromethyl)pyrazol-1-yl)cyclohexane-1-carboxylic acid], the IC50 is 8.32e+06 pM. With `CCC(C)(C)CN(CC(=O)c1c(Cl)cc(Cl)cc1Cl)C(=O)c1cnn(C23CCC(C(=O)O)(CC2)CC3)c1C(F)(F)F` [Example 308, 4-(4-(2,2-dimethylbutyl-(2-oxo-2-(2,4,6-trichlorophenyl)ethyl)carbamoyl)-5-(trifluoromethyl)pyrazol-1-yl)bicyclo[2.2.2]octane-1-carboxylic acid], the IC50 is 16600 pM. As to `CCC(C)(C)CN(CC(=O)c1c(Cl)cc(F)cc1Cl)C(=O)c1cnn(C23CCC(C(=O)O)(CC2)CC3)c1C(F)(F)F` [Example 309, 4-(4-((2-(2,6-dichloro-4-fluorophenyl)-2-oxoethyl)-(2,2 dimethylbutyl)carbarnoyl)-5-(trifluoromethyl)pyrazol-1-yl)bicyclo [2.2.2] octane-1-carboxylic acid], the IC50 was 11200 pM. As for `CC(C)(C)CN(CC(=O)c1c(Cl)cncc1Cl)C(=O)c1cnn([C@H]2CC[C@](C)(C(=O)O)CC2)c1C#N` [Example 310, trans-4-(5-cyano-4-((2-(3,5-dichloropyridin-4-yl)-2-oxoethyl)-(2,2-dimethylpropyl)carbamoyl)pyrazol-1-yl)-1-methylcyclohexane-1-carboxylic acid], the figure is more than 1.05e+07 pM.

`CN1C(C)(C)CC(N(CC(=O)c2c(Cl)cncc2Cl)C(=O)c2cnn([C@H]3CC[C@](C)(C(=O)O)CC3)c2C(F)(F)F)CC1(C)C` [Example 311, trans-4-(4-((2-(3,5-dichloropyridin-4-yl)-2-oxoethyl)-(1,2,2,6,6-pentamethylpiperidin-4-yl)carbamoyl)-5-(trifluoromethyl)pyrazol-1-yl)-1-methylcyclohexane-1-carboxylic acid]: the IC50 was more than 1.05e+07 pM. As to `CC(C)CC(C)N(CC(=O)c1c(Cl)cncc1Cl)C(=O)c1cnn([C@H]2CC[C@](C)(C(=O)O)CC2)c1C(F)(F)F` (stereo partly drawn) [Example 312, trans-4-(4-((2-(3,5-dichloropyridin-4-yl)-2-oxoethyl)-(4-methylpentan-2-yl)carbamoyl)-5-(trifluoromethyl)pyrazol-1-yl)-1-methylcyclohexane-1-carboxylic acid], the IC50 was 52500 pM. As for `COCC(C)N(CC(=O)c1c(Cl)cncc1Cl)C(=O)c1cnn([C@H]2CC[C@](C)(C(=O)O)CC2)c1C(F)(F)F` (stereo partly drawn) [Example 313, trans-4-(4-((2-(3,5-dichloropyridin-4-yl)-2-oxoethyl)-(1-methoxypropan-2-yl)carbamoyl)-5-(trifluoromethyl)pyrazol-1-yl)-1-methylcyclohexane-1-carboxylic acid], the IC50 was 1.55e+06 pM. Consider `CC(C)=CCN(CC(=O)c1c(Cl)cncc1Cl)C(=O)c1cnn([C@H]2CC[C@](C)(C(=O)O)CC2)c1C(F)(F)F` [Example 314, trans-4-(4-((2-(3,5-dichloropyridin-4-yl)-2-oxoethyl)-(3-methylbut-2-enyl)carbamoyl)-5-(trifluoromethyl)pyrazol-1-yl)-1-methylcyclohexane-1-carboxylic acid], for which the IC50 was 41700 pM. Take `COc1cncc(Cl)c1C(=O)CN(CC(C)(C)C)C(=O)c1cnn([C@H]2CC[C@](C)(C(=O)O)CC2)c1C(F)(F)F` [Example 315, trans-4-(4-((2-(3-chloro-5-methoxypyridin-4-yl)-2-oxoethyl)-(2,2-dimethylpropyl)carbamoyl)-5-(trifluoromethyl)pyrazol-1-yl)-1-methylcyclohexane-1-carboxylic acid]: the IC50 is 55000 pM. Turning to `CC1(CN(CC(=O)c2c(Cl)cncc2Cl)C(=O)c2cnn(C34CCC(C(=O)O)(CC3)CC4)c2C(F)(F)F)CC1` [Example 316, 4-(4-((2-(3,5-dichioropyridin-4-yl)-2-oxoethyl)-((1-methylcyclopropyl)methyl)carbamoyl)-5-(trifluoromethyl)pyrazol-1-yl)bicyclo[2.2.2]octane-1-carboxylic acid], the IC50 was 9120 pM. Regarding `CC(C)(C)CN(CC(=O)c1c(Cl)cccc1Cl)C(=O)c1cnn(C23CCC(C(=O)O)(CC2)CC3)c1C(F)(F)F` [Example 317, 4-(4-((2-(2,6-dichlorophenyl)-2-oxoethyl)-(2,2-dimethylpropyl)carbamoyl)-5-(trifluoromethyl)pyrazol-1-yl)bicyclo[2.2.2]octane-1-carboxylic acid], the IC50 is 10000 pM. Take `CC(C)(C)OCCN(CC(=O)c1c(Cl)cncc1Cl)C(=O)c1cnn([C@H]2CC[C@](C)(C(=O)O)CC2)c1C(F)(F)F` [Example 318, trans-4-(4-((2-(3,5-dichloropyridin-4-yl)-2-oxoethyl)-(2-((2-methylpropan-2-yl)oxy)ethyl)carbamoyl)-5-(trifluoromethyl)pyrazol-1-yl)-1-methylcyclohexane-1-carboxylic acid]: the IC50 was 20000 pM. As to `CC(C)CC1(N(CC(=O)c2c(Cl)cncc2Cl)C(=O)c2cnn([C@H]3CC[C@](C)(C(=O)O)CC3)c2C(F)(F)F)CC1` [Example 319, trans-4-(4-((2-(3,5-dichloropyridin-4-yl)-2-oxoethyl)-(1-(2-methylpropyl)cyclopropyl)carbamoyl)-5-(trifluoromethyl)pyrazol-1-yl)-1-methylcyclohexane-1-carboxylic acid], the IC50 was 141000 pM. As for `CC1(C)[C@@H]2C[C@H](N(CC(=O)c3c(Cl)cccc3Cl)C(=O)c3cnn(C45CCC(C(=O)O)(CC4)CC5)c3C(F)(F)F)C[C@@H]21` [Example 320, 4-(4-((2-(2,6-dichlorophenyl)-2-oxoethyl)((1R,3r,5S)-6,6-dimethylbicyclo[3.1.0]hexan-3-yl)carbamoyl)-5-(trifluoromethyl)-1H-pyrazol-1-yl)bicyclo [2.2.2] octane-1-carboxylic acid], the figure is 9770 pM.

For the compound `Cc1cc(Cl)c(C(=O)CN(C(=O)c2cnn(C34CCC(C(=O)O)(CC3)CC4)c2C(F)(F)F)[C@H]2C[C@@H]3[C@H](C2)C3(C)C)c(Cl)c1` [Example 321, 4-(4-((2-(2,6-dichloro-4-methylphenyl)-2-oxoethyl)((1R,3r,5S)-6,6-dimethylbicyclo[3.1.0]hexan-3-yl)carbamoyl)-5-(trifluoromethyl)-1H-pyrazol-1-yl)bicyclo[2.2.2]octane-1-carboxylic acid], the IC50 was 11700 pM.

Values taken from US9365522B2, “Pyrazole amide derivative” (AMGEN INC., priority 2015, dated 2016).
